Results from patent US20260374773A1, “MULTI-CYCLIC IRAK AND FLT3 INHIBITING COMPOUNDS AND USES THEREOF” (CHILDREN'S HOSPITAL MEDICAL CENTER, priority 2022, published 2026).

Experiments:
Format in all cases: cell-based
NF-κB = NF-κB SEAP reporter assay in THP-1-Blue NF-κB cells, Pam3CSK4 stimulated; details: Table 15; THP-1-Blue cells, 1 ng/ml Pam3CSK4, 24 h; read-out: NF-κB Pam3SCK4 IC50
Protocol: (§1) THP-1-Blue NF-κB cells (InvivoGen) carrying a stable integrated NF-κB-inducible secreted embryonic alkaline phosphatase (SEAP) reporter construct were plated at a concentration of 1×10^5 cells per well. The cells were stimulated with Pam3CSK4 (1 ng/ml) or hIL1B (1 ng/ml). After 10-20 minutes, the cells were then treated with vehicle (DMSO) or serial dilutions of the test compounds (10 doses tested for each test compound, with a […] starting at 1 μM or 3 μM) with a final volume of 200 μL for 24 hours at 37 °C. After 24 hours, the cells were centrifuged and 20 μL supernatant was incubated with 180 μL QUANTI-Blue reagent at 37 °C for 30-60 minutes. The levels of NF-κB-induced was measured in a microplate reader at 620 nm.
as §1, with “1 mM” for “1 μM”, “3 mM)” for “3 μM)”, “200 mL” for “200 μL”, “20 mL” for “20 μL”, “180 mL” for “180 μL”, “NF-κB-induced gene expression were” for “NF-κB-induced was”

MOLM14 D835Y cells = experiment: MOLM14 D835Y cell viability (Cell Titer Glo); details: Homo sapiens, MOLM-14, Table 16, 48 h
Summary of the method: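 FLT3-D835Y-mutant MOLM14 cells, 1000/well in RPMI-1640 with 20% FBS, treated with 22-point 1:2 dilutions starting at 10 μM. After 48 h incubation, viability was read by CellTiter-Glo luminescence; bortezomib (2.3 μM final) served as cytotoxic control.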

MOLM14 F691L cells = experiment: MOLM14 F691L cell viability (Cell Titer Glo); details: Homo sapiens, MOLM-14, Table 16, 48 h
Protocol: Both cell lines have activated FLT3 receptors, each of which carry additional resistance mutations in the kinase domain (D835Y and F691L, respectively).
MOLM14 D835Y and MOLM14 F691L cells were grown in RPMI-1640 media supplemented with 20% fetal bovine serum (FBS). For viability/cytotoxicity assessments, cells were seeded into 1536-well white polystyrene tissue culture-treated Greiner plates using a Multidrop Combi dispenser (ThermoFisher), in final volume 5 μL of growth media per well, at a density of 1000 cells per well. After cell addition, 23 nL of test compound were transferred into individual wells (22 doses tested for each test compound, with a 1:2 dilution series starting at 10 μM) via a 1536 pin-tool. Bortezomib (final concentration 2.3 μM) was used as a positive control for cell cytotoxicity. Plates were incubated for 48 hours at standard incubator conditions covered by a stainless steel gasketed lid to prevent evaporation. 48 hours post compound addition, 3 μL of Cell Titer Glo (Promega) were added to each well and plates were incubated at room temperature for 15 minutes with the stainless-steel lid in place. Luminescence readings were taken using a Viewlux imager (PerkinElmer) with a 2 second exposure time per plate.

## COc1cn2ncc(-c3nc(N[C@@H]4CCCNC4)ccc3F)c2nc1C1CC1 [Compound 2, (R)-6-(5-cyclopropyl-6-methoxypyrazolo[1,5-a]pyrimidin-3-yl)-5-fluoro-N-(piperidin-3-yl)pyridin-2-amine]
NF-κB
  IC50: 71 nM
MOLM14 D835Y cells
  IC50: 2 nM
MOLM14 F691L cells
  IC50: 14 nM

## COc1cn2ncc(-c3nc(N[C@@H]4CCCNC4)c(F)cc3F)c2nc1C(C)(C)O [Compound 11, (R)-2-(3-(3,5-difluoro-6-(piperidin-3-ylamino)pyridin-2-yl)-6-methoxypyrazolo[1,5-a]pyrimidin-5-yl)propan-2-ol]
NF-κB
  IC50: 128 nM
MOLM14 D835Y cells
  IC50: 13 nM
MOLM14 F691L cells
  IC50: 142 nM

## COc1cn2ncc(-c3nc(N[C@H]4CNC[C@@H]4F)c(F)cc3F)c2nc1C(C)(C)O [Compound 12, 2-(3-(3,5-difluoro-6-(((3S,4S)-4-fluoropyrrolidin-3-yl)amino)pyridin-2-yl)-6-methoxypyrazolo[1,5-a]pyrimidin-5-yl)propan-2-ol]
NF-κB
  IC50: 42 nM
MOLM14 D835Y cells
  IC50: 32 nM
MOLM14 F691L cells
  IC50: 449 nM
